# Measurements published in the supplement of paper PMC10307832.
# Experiments:
# Experiment in all cases: relative viability (nuclei count vs DMSO), 5 days (fraction); higher = more cells survive
# Crenolanib + Lapatinib = compound: CC1(COc2ccc3c(c2)ncn3-c2ccc3cccc(N4CCC(N)CC4)c3n2)COC1 [Crenolanib] + CS(=O)(=O)CCNCc1ccc(-c2ccc3ncnc(Nc4ccc(OCc5cccc(F)c5)c(Cl)c4)c3c2)o1 [Lapatinib] (partner 2 µM)
# How it was run: (§1)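 Lung cancer cell lines were pin-tool dosed in 1536-well plates on the day after seeding, with either a lone drug or a fixed anchor-drug dose plus five library-drug doses (not always all listed) in √10 steps. Nuclei were counted on 4× images after 5 days. Relative viability is the ratio of treated-well to vehicle-well nuclei counts, with each value a median of duplicate plates.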
# Crenolanib + Pictilisib = compound: CC1(COc2ccc3c(c2)ncn3-c2ccc3cccc(N4CCC(N)CC4)c3n2)COC1 [Crenolanib] + CS(=O)(=O)N1CCN(Cc2cc3nc(-c4cccc5[nH]ncc45)nc(N4CCOCC4)c3s2)CC1 [Pictilisib] (partner 1 µM)
# How it was run: as §1
# Tivantinib + Lapatinib = compound: O=C1NC(=O)[C@@H](c2cn3c4c(cccc24)CCC3)[C@@H]1c1c[nH]c2ccccc12 [Tivantinib] + CS(=O)(=O)CCNCc1ccc(-c2ccc3ncnc(Nc4ccc(OCc5cccc(F)c5)c(Cl)c4)c3c2)o1 [Lapatinib] (partner 2 µM)
# How it was run: as §1
# Tivantinib + Alpelisib = compound: O=C1NC(=O)[C@@H](c2cn3c4c(cccc24)CCC3)[C@@H]1c1c[nH]c2ccccc12 [Tivantinib] + Cc1nc(NC(=O)N2CCC[C@H]2C(N)=O)sc1-c1ccnc(C(C)(C)C(F)(F)F)c1 [Alpelisib] (partner 2 µM)
# How it was run: as §1
Cell Line,relative viability (Crenolanib + Lapatinib; first compound 0.01 µM),relative viability (Crenolanib + Lapatinib; first compound 0.03162 µM),relative viability (Crenolanib + Lapatinib; first compound 0.1 µM),relative viability (Crenolanib + Lapatinib; first compound 0.3162 µM),relative viability (Crenolanib + Lapatinib; first compound 1 µM),relative viability (Crenolanib + Pictilisib; first compound 0.01 µM),relative viability (Crenolanib + Pictilisib; first compound 0.03162 µM),relative viability (Crenolanib + Pictilisib; first compound 0.1 µM),relative viability (Crenolanib + Pictilisib; first compound 0.3162 µM),relative viability (Crenolanib + Pictilisib; first compound 1 µM),relative viability (Tivantinib + Lapatinib; first compound 0.01 µM),relative viability (Tivantinib + Lapatinib; first compound 0.03162 µM),relative viability (Tivantinib + Lapatinib; first compound 0.1 µM),relative viability (Tivantinib + Lapatinib; first compound 0.3162 µM),relative viability (Tivantinib + Alpelisib; first compound 0.01 µM),relative viability (Tivantinib + Alpelisib; first compound 0.03162 µM),relative viability (Tivantinib + Alpelisib; first compound 0.1 µM),relative viability (Tivantinib + Alpelisib; first compound 0.3162 µM)
NCI-H2126,0.796,0.742,0.745,0.775,0.71,0.504,0.509,0.51,0.47,0.476,0.799,0.737,0.77,0.799,0.745,0.739,0.749,0.684
LK-2,0.942,0.812,0.935,0.938,0.851,0.586,0.461,0.662,0.473,0.615,0.955,–,0.841,0.872,1.24,–,0.58,0.668
NCI-H1563,0.818,0.97,0.937,0.998,0.849,0.608,0.633,0.693,0.652,0.59,1.05,0.894,0.831,0.908,1.04,0.89,0.932,1.06
COR-L23,0.952,1.13,0.836,0.931,0.987,0.777,0.756,0.677,1.03,0.654,1.12,0.975,0.894,0.922,0.864,0.754,0.671,0.905
ABC-1,1.23,1.02,1.28,1.1,1.23,0.837,0.63,0.83,0.692,0.686,–,1.13,1.17,0.869,0.984,0.995,0.742,0.825
PC-14,0.311,0.294,0.335,0.335,0.324,0.661,0.787,0.588,0.744,0.65,0.307,0.35,0.3,0.325,0.874,0.927,0.945,0.892
A549,1.12,1.1,0.948,1.23,1.1,0.608,0.545,0.554,0.689,0.506,1,1.02,0.911,0.935,0.769,0.818,0.708,0.79
A-427,0.996,0.998,1.04,1.06,1.06,0.747,0.674,0.642,0.582,0.651,1,1.12,0.989,1.12,1.12,1.12,1.1,0.973
NCI-H1915,0.943,0.927,1.01,0.956,0.764,0.871,0.957,0.932,0.915,0.586,0.95,0.985,1,0.996,1.07,1.01,1.09,1.04
LOU-NH91,0.798,0.742,0.774,0.737,0.772,0.595,0.525,0.473,0.56,0.53,0.83,0.702,0.78,0.72,0.663,0.695,0.742,0.533
NCI-H1734,1,1.08,0.995,1.27,0.937,0.436,0.494,0.443,0.477,0.432,1.01,0.938,1.05,1.01,0.677,0.597,0.64,0.681
LCLC-97TM1,0.895,0.861,0.748,0.959,0.784,0.162,0.245,0.176,0.245,0.118,1.04,0.852,1.04,0.889,0.237,0.215,0.2,0.198
RERF-LC-KJ,0.917,0.886,0.903,0.872,0.812,0.548,0.591,0.538,0.621,0.687,0.911,0.9,0.872,0.759,0.839,0.854,0.81,0.6
BEN,0.808,0.552,0.746,0.685,0.68,0.664,0.574,0.51,0.522,0.609,0.623,0.617,0.591,0.691,1.02,0.837,0.893,0.735
NCI-H1703,1.14,0.713,0.262,0.257,0.189,0.237,0.238,0.212,0.209,0.228,1.3,0.94,1.06,1.06,0.499,0.329,0.256,0.334
SW 1573,1.01,1.06,1.3,1.18,1.1,0.368,0.521,0.451,0.656,0.598,1.16,0.97,0.928,1.07,0.941,0.738,0.741,0.716
COR-L 105,0.353,0.403,0.345,0.37,0.335,0.455,0.363,0.341,0.514,0.411,0.412,0.359,0.29,0.359,1,0.921,0.783,0.95
NCI-H1993,0.805,0.759,0.856,0.787,0.784,0.778,0.805,0.71,0.858,0.825,0.94,0.74,0.706,0.852,0.682,0.707,0.644,0.669
Calu-6,0.996,1.02,1.05,1.27,1.06,1.04,0.91,0.978,1.15,0.968,1.08,1.02,1.02,0.965,0.987,1.03,1.02,0.955
NCI-H2009,1.07,0.889,0.899,0.913,0.906,0.854,0.803,0.738,0.708,0.532,0.917,0.595,0.914,0.958,1.15,1.21,1.12,1.14
SK-LU-1,0.911,0.917,0.694,0.921,0.958,0.609,0.494,0.432,0.62,0.611,1.06,0.856,0.835,0.855,1.04,1.17,0.995,1.16
NCI-H2347,0.981,0.903,0.663,1.05,0.873,0.55,0.625,0.464,0.845,0.561,0.891,0.923,0.956,1,1.16,0.959,1.06,1.01
HCC-44,1.02,0.997,0.901,0.999,0.905,0.672,0.649,0.575,0.571,0.492,1.02,1.04,0.998,1,0.844,0.703,0.858,0.793
EMC-BAC-2,0.912,0.862,0.882,0.931,0.81,0.552,0.523,0.492,0.578,0.495,1,0.852,0.867,0.881,0.792,0.718,0.705,0.656
NCI-H3122,1.02,0.976,1.01,1.09,1.21,0.549,0.497,0.561,0.732,0.738,1.08,0.94,0.973,1.01,0.731,0.849,0.803,0.807
NCI-H358,0.468,0.461,0.44,0.45,0.312,0.4,0.309,0.332,0.326,0.311,0.53,0.42,0.418,0.403,0.911,0.78,0.827,0.365
NCI-H1944,0.814,0.809,0.839,0.617,0.698,0.367,0.351,0.37,0.346,0.304,0.832,0.742,0.895,0.906,0.79,0.782,0.735,0.554
H3255,0.271,0.218,0.241,0.233,0.24,0.461,0.475,0.479,0.559,0.496,0.275,0.234,0.294,–,0.659,0.679,0.75,–
EBC-1,0.212,0.213,0.22,0.202,0.215,0.469,0.423,0.333,0.357,0.422,0.205,0.248,0.194,0.201,0.948,0.865,0.841,0.719
NCI-H1975,0.844,0.968,0.774,0.891,0.702,0.271,0.307,0.247,0.283,0.214,0.943,0.863,0.795,1.1,0.645,0.676,0.602,0.5
